Laboratory results as given in patent publication US10597388B2, “Pyridazinone herbicides” (FMC CORPORATION, priority 2014, dated 2020).

Legend:
Assay in all cases: Test D controlled growth environment herbicide test, pre- and postemergence
Assay type in all cases: in vivo
[1] = test system: barley, winter (winter barley, Hordeum vulgare)
Procedure, shortened: (§1)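 Pre-emergence: seeds sown in silt loam soil were sprayed with compound in a non-phytotoxic solvent mix containing surfactant. Post-emergence: plants at 2 to 18 cm (1- to 4-leaf stage) in peat moss/vermiculite medium got the same formulation. Visual 0–100 rating versus controls after 14 to 21 d.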

[2] = test system: mustard, wild (wild mustard, Sinapis arvensis)
Procedure, shortened: as §1

[3] = test system: canarygrass (Phalaris minor)
Procedure, shortened: as §1

[4] = test system: wheat, winter (winter wheat, Triticum aestivum)
Procedure, shortened: as §1

[5] = test system: chickweed (common chickweed, Stellaria media)
Procedure, shortened: as §1

[6] = test system: barley, spring (spring barley, Hordeum vulgare)
Procedure, shortened: as §1

[7] = test system: bluegrass (annual bluegrass, Poa annua)
Procedure, shortened: as §1

[8] = test system: radish, wild (wild radish, Raphanus raphanistrum)
Procedure, shortened: as §1

[9] = test system: ryegrass, Italian (Italian ryegrass, Lolium multiflorum)
Procedure, shortened: as §1

[10] = test system: deadnettle (henbit deadnettle, Lamium amplexicaule)
Procedure, shortened: as §1

[11] = test system: windgrass (Apera spica-venti)
Procedure, shortened: as §1

[12] = test system: foxtail, green (green foxtail, Setaria viridis)
Procedure, shortened: as §1

[13] = test system: field poppy (Papaver rhoeas)
Procedure, shortened: as §1

[14] = Postemergence, 31 g ai/ha, scale 0 to 100 (0 no effect, 100 complete control)
[15] = Postemergence, 125 g ai/ha, visual rating on scale 0 (no effect) to 100 (complete control), 14 to 21 d
[16] = Postemergence, 250 g ai/ha, scale 0 to 100 (0 no effect, 100 complete control)
[17] = Preemergence, 62 g ai/ha, scale 0 to 100 (0 no effect, 100 complete control)
[18] = Preemergence, 125 g ai/ha, scale 0 to 100 (0 no effect, 100 complete control)
[19] = Preemergence, 250 g ai/ha, scale 0 to 100 (0 no effect, 100 complete control)
[20] = postemergence, 62 g ai/ha, scale 0 to 100, 0 no effect, 100 complete control

Cc1ccc2ccc(C)c(-c3c(O)c(C)nn(C)c3=O)c2c1 [Compound 60]
35: Plant response rating, Wheat, Winter [4, 15] | Plant response rating, Wheat, Winter [4, 17] | Plant response rating, Bluegrass [7, 15] | Plant response rating (scale of 0 to 100), Bluegrass ([7]; Preemergence, 31 g ai/ha) | Plant response rating (scale of 0 to 100), Deadnettle ([10]; Preemergence, 31 g ai/ha) | Foxtail, Green plant response rating [12, 14]
5: Plant response rating (scale of 0 to 100), Barley, Spring ([6]; Preemergence, 31 g ai/ha)
40: Plant response rating, Barley, Winter [1, 15] | Plant response rating, Wheat, Winter [4, 16] | Plant response rating, Barley, Spring [6, 15] | Plant response rating, Foxtail, Green [12, 20]
80: Canarygrass plant response rating [3, 14] | Plant response rating, Canarygrass [3, 20] | Plant response rating, Bluegrass [7, 19] | Ryegrass, Italian plant response rating [9, 14] | Windgrass plant response rating [11, 14] | Plant response rating, Foxtail, Green [12, 17]
90: Plant response rating, Mustard, Wild [2, 19] | Plant response rating, Canarygrass [3, 16] | Plant response rating (scale of 0 to 100), Canarygrass ([3]; Preemergence, 31 g ai/ha) | Plant response rating, Radish, Wild [8, 17] | Plant response rating, Radish, Wild [8, 19] | Plant response rating, Ryegrass, Italian [9, 15] | Plant response rating, Ryegrass, Italian [9, 20] | Plant response rating, Deadnettle [10, 17] | Plant response rating, Windgrass [11, 15] | Plant response rating, Windgrass [11, 17]
85: Plant response rating, Mustard, Wild [2, 18] | Plant response rating, Canarygrass [3, 15] | Chickweed plant response rating [5, 14] | Plant response rating, Deadnettle [10, 18] | Plant response rating (scale of 0 to 100), Windgrass ([11]; Preemergence, 31 g ai/ha) | Plant response rating, Windgrass [11, 20] | Plant response rating, Field Poppy [13, 15]
45: Plant response rating (scale of 0 to 100), Mustard, Wild ([2]; Preemergence, 31 g ai/ha) | Plant response rating, Barley, Spring [6, 18] | Plant response rating, Bluegrass [7, 17]
95: Plant response rating, Canarygrass [3, 17] | Plant response rating, Canarygrass [3, 18] | Plant response rating (scale of 0 to 100), Chickweed ([5]; Preemergence, 31 g ai/ha) | Plant response rating, Radish, Wild [8, 15] | Plant response rating, Radish, Wild [8, 16] | Plant response rating, Radish, Wild [8, 18] | Plant response rating, Ryegrass, Italian [9, 16] | Plant response rating, Deadnettle [10, 15] | Plant response rating, Deadnettle [10, 16] | Plant response rating, Foxtail, Green [12, 18]
15: Plant response rating (scale of 0 to 100), Barley, Winter ([1]; Preemergence, 31 g ai/ha) | Barley, Spring plant response rating [6, 14] | Bluegrass plant response rating [7, 14]
65: Plant response rating, Barley, Winter [1, 19] | Plant response rating, Bluegrass [7, 18] | Radish, Wild plant response rating [8, 14] | Plant response rating, Foxtail, Green [12, 15]
50: Plant response rating, Barley, Winter [1, 16] | Plant response rating, Barley, Winter [1, 18] | Plant response rating, Barley, Spring [6, 16]
30: Plant response rating, Barley, Winter [1, 17] | Plant response rating, Wheat, Winter [4, 20]
10: Barley, Winter plant response rating [1, 14] | Plant response rating (scale of 0 to 100), Wheat, Winter ([4]; Preemergence, 31 g ai/ha) | Plant response rating, Barley, Spring [6, 17]
60: Plant response rating, Barley, Spring [6, 19] | Plant response rating, Bluegrass [7, 16] | Field Poppy plant response rating [13, 14]
55: Plant response rating, Wheat, Winter [4, 18] | Plant response rating, Wheat, Winter [4, 19] | Plant response rating (scale of 0 to 100), Radish, Wild ([8]; Preemergence, 31 g ai/ha)
25: Plant response rating, Barley, Winter [1, 20] | Wheat, Winter plant response rating [4, 14] | Plant response rating, Barley, Spring [6, 20] | Plant response rating, Bluegrass [7, 20]
75: Mustard, Wild plant response rating [2, 14] | Plant response rating, Mustard, Wild [2, 20] | Plant response rating, Radish, Wild [8, 20] | Plant response rating, Deadnettle [10, 20] | Plant response rating, Foxtail, Green [12, 16] | Plant response rating (scale of 0 to 100), Field Poppy ([13]; Preemergence, 31 g ai/ha) | Plant response rating, Field Poppy [13, 20]
100: Plant response rating, Mustard, Wild [2, 16] | Plant response rating, Canarygrass [3, 19] | Plant response rating, Chickweed [5, 15] | Plant response rating, Chickweed [5, 16] | Plant response rating, Chickweed [5, 17] | Plant response rating, Chickweed [5, 18] | Plant response rating, Chickweed [5, 19] | Plant response rating, Chickweed [5, 20] | Plant response rating (scale of 0 to 100), Ryegrass, Italian ([9]; Preemergence, 31 g ai/ha) | Plant response rating, Ryegrass, Italian [9, 17] | Plant response rating, Ryegrass, Italian [9, 18] | Plant response rating, Ryegrass, Italian [9, 19] | Plant response rating, Deadnettle [10, 19] | Plant response rating, Windgrass [11, 18] | Plant response rating, Windgrass [11, 19] | Plant response rating, Foxtail, Green [12, 19] | Plant response rating, Field Poppy [13, 16] | Plant response rating, Field Poppy [13, 17] | Plant response rating, Field Poppy [13, 18] | Plant response rating, Field Poppy [13, 19]
98: Plant response rating, Mustard, Wild [2, 15] | Plant response rating, Windgrass [11, 16]
70: Plant response rating, Mustard, Wild [2, 17] | Deadnettle plant response rating [10, 14] | Plant response rating (scale of 0 to 100), Foxtail, Green ([12]; Preemergence, 31 g ai/ha)
